Measurements reported in article PMC3908613 (Bioscience Reports, 2014).

What was measured:
[1] = tested on: DC; assay: Actin cytoskeleton organisation in DC (confocal microscopy); assay type: cell-based, C57BL/6 mice; conditions: 4 μM D1870 or 2 μM BIX, 1h30 at 37°C
Description: 2 μMBIXfor1h30at37◦ C. Cells were ﬁxed in 4 % (v/v) paraformalde-hyde for 15 min, permeabilized with 0.1 % Triton for 5 min and stained with phalloidin-Alexa 555 (Invitrogen) and anti-vinculin antibody (Sigma) followed by goat anti-mouse Alexa 488 antibody (invitrogen). Cells were analysed on a Zeiss700 confocal microscope. V inculin (green) and phal-loidin (red). Error bar 10 μm. Images are representative of three inde- […]
© 2014 The Author(s) This is an Open Access ar ticle distributed under the terms of the Creative Commons Attribution Licence (CC-BY) (http://creativecommons.org/licenses/by/3.0/)c which permits unrestricted use, distribution and reproduction in any medium, provided the original work is properly cited.
(1 picture or pasted object on this page, not shown here)

[2] = target: T1, GST-Mst1 (Homo sapiens, UniProt Q13043); assay: Kinase assay for recombinant Mst1; assay type: biochemical; conditions: 100 μM ATP, myelin basic protein substrate
T1 construct: GST; purchased DSTT
T1 sequence (Q13043 1-487): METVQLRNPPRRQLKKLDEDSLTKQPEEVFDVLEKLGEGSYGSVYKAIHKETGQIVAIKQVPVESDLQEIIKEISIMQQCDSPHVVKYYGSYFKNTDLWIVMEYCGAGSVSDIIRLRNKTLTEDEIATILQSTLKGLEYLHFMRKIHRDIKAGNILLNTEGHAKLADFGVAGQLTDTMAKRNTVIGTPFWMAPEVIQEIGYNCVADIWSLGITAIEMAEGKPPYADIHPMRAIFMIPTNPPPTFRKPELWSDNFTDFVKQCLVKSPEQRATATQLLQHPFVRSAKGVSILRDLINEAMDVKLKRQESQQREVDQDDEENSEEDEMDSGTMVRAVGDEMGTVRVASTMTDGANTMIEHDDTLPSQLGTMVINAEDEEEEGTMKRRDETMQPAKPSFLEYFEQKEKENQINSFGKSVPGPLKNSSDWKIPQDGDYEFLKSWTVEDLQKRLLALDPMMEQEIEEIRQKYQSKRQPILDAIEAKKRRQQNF

[3] = tested on: BMDC; assay: FITC-dextran uptake (macropinocytosis) by BMDC; assay type: cell-based, C57BL/6 mice; conditions: LPS 50 ng/ml, FITC-dextran 1 mg/ml; Akt-i at 1 μM
Description: (§1) DCs were generated from the bone marrow or the spleen of C57BL/6 mice as previously described. Briefly, bone marrow cells were cultured for 7 days at 37°C, 5% (v/v) CO2 in complete RPMI medium supplemented with 10 ng/ml recombinant granulocyte–macrophage colony-stimulating factor (GM-CSF; Peprotech). Spleen cells were cultured for 14 days at 37°C, 5% CO2 in complete RPMI containing 10 ng/ml GM-CSF and 1 ng/ml TGFβ (transforming growth factor-β; R&D Systems). NIH3T3 cells (European Cell Culture Collection) were cultured in DMEM (Dulbecco's modified Eagle's medium) supplemented with glutamine, penicillin, streptomycin and 10% (v/v) calf serum (Invitrogen).
FITC-dextran uptake was measured as described. […] In some experiments, cells were pre-treated with 1 μM Akt-i (Merck) for 30 min. Cells were left unstimulated or were stimulated with 50 ng/ml LPS for 20 min at 37°C followed by the addition of 1 mg/ml FITC dextran (Invitrogen) for 10 min at 37°C. Cells were washed four times at 4°C in PBS supplemented with 2% (v/v) FCS (foetal calf serum) and then stained with APC (allophycocyanin)-labelled anti-CD11c antibody (BD biosciences). FITC dextran uptake was measured on an FACS Calibur (BD biosciences).

[4] = target: T2, PLK1 (Mus musculus, UniProt Q07832); assay: Desthiobiotin-ATP probe capture on streptavidin beads, Western blot; assay type: binding, C57BL/6 mice; conditions: 10 μM inhibitor, DC lysate
T2 construct: endogenous in cells; host or cells: mouse spleen-derived dendritic cells (SDC), lysate
Description: SDC were cultured for at least 14 days in RPMI (without arginine and lysine, custom-made by Biosera) containing 10% dialysed FCS (Hyclone) supplemented with 84 mg/l of L-arginine (Sigma) and 40 mg/l L-lysine (Sigma) for the ‘light’ medium or 84 mg/l of L-arginine ^13C6 or ^13C10 and 40 mg/l L-lysine ^13C6 (Cambridge Isotope Laboratory) for the ‘heavy’ medium. Equal numbers (2×10^7) of ‘light’ or ‘heavy’ labelled SDCs were incubated in RPMI containing 0.5% FCS for 3 h in 15 cm dishes. The cells were lysed in the lysis buffer provided in the kit (Pierce). […] Labelling with the desthiobiotin ATP probe, and precipitation with streptavidin beads were performed according to the manufacturer's instructions (Pierce kinase enrichment kit or ActivX™). Equal amount of streptavidin precipitates were separated by electrophoresis as described above and probed with antibodies against Rsk2, Lok (Bethyl), Slk (Bethyl), PLK1 (Calbiochem), p38, Erk2 and Mst1 (from Cell Signaling).

[5] = tested on: PLK1; conditions: cited from earlier work
[6] = tested on: BMDC; assay: Cytokine production by LPS-stimulated BMDC (ELISA); assay type: cell-based, C57BL/6 mice
Description: as §1, with “granulocyte-macrophage” for “granulocyte–macrophage”, “(Invitrogen). […] The amounts of TNFα (tumour necrosis factor α), IL6 (interleukin 6) and IL10 in the supernatant were measured using ELISA kits specific for each cytokine (TNFα, IL6; Peprotech, IL10; R&D Systems).” for “(Invitrogen).”

[7] = target: T3, rSlk (Homo sapiens, UniProt Q9H2G2); assay: Kinase assay for recombinant Slk; assay type: biochemical; conditions: 25 μM ATP, bovine histone H1 substrate
T3 construct: purchased Millipore

[8] = LPS 50 ng/ml, 18 h, increasing concentrations of inhibitor

T3 sequence (Q9H2G2 whole entry): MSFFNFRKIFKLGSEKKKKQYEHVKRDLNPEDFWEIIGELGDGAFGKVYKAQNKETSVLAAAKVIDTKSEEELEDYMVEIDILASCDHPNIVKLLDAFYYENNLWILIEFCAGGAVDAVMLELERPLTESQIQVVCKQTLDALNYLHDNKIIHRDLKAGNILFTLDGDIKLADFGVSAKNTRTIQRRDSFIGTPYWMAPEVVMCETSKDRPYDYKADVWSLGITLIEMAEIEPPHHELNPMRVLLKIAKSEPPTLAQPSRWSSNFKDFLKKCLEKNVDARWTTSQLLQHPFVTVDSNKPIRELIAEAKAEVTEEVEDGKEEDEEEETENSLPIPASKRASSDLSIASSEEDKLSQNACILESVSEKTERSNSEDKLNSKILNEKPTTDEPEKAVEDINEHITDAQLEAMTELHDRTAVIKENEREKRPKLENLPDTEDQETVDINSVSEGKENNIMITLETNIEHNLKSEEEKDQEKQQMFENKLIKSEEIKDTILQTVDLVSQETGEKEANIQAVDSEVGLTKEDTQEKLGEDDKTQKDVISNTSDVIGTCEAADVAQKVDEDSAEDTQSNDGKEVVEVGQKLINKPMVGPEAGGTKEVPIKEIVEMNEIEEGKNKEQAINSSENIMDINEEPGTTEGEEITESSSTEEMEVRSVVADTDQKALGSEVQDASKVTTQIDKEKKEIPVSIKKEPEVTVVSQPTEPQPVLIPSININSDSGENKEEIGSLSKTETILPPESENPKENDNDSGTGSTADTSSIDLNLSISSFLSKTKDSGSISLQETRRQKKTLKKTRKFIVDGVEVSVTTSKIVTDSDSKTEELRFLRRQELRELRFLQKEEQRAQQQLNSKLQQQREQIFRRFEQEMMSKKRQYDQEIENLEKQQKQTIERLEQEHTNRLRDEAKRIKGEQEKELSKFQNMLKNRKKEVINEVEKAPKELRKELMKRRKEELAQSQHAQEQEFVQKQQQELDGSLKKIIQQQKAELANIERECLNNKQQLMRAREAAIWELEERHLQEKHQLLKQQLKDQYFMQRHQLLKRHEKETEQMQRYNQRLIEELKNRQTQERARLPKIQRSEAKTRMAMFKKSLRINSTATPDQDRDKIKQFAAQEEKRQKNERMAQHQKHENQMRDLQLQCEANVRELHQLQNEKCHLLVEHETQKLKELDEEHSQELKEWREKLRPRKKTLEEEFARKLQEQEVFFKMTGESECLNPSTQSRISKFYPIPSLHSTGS
T2 sequence (Q07832 whole entry): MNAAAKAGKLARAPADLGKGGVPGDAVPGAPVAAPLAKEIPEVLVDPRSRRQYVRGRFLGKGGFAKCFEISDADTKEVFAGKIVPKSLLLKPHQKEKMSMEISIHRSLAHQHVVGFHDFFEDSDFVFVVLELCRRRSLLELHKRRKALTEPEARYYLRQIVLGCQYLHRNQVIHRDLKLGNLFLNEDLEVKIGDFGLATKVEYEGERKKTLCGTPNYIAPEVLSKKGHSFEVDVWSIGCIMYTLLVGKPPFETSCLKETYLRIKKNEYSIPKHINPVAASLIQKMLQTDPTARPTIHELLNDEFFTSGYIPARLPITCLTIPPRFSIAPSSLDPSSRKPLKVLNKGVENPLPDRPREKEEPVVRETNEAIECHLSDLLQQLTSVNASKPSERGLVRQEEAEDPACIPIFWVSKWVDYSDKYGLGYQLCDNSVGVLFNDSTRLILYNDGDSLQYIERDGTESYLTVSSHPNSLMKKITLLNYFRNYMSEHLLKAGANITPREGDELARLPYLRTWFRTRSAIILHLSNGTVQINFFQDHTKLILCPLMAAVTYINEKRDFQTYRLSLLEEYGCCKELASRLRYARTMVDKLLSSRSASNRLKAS

For CC(C)CCN1c2nc(Nc3cc(F)c(O)c(F)c3)ncc2N(C)C(=O)C1C (stereo not shown) [D1870, BI-D1870], the “morphological changes in resting DC (cell spreading, focal adhesion, loss of podosomes)” value [1] was “induced morphological changes”, the IC50 [2] was about 300 nM and the LPS-mediated dextran uptake [3] was “completely blocked”. The “Recovery of PLK1 on streptavidin beads” value [4] was “blocked”, the IC50 [5] was […] and the IL6 secretion [6, 8] was “dose-dependent inhibition”. The IL10 secretion [6, 8] was “dose-dependent inhibition”, the TNFα production [6, 8] was “not by D1870” and the “mRNA levels of IL6 and IL10” value ([6]; after 1 or 3 h of LPS stimulation, data not shown) was “rapidly inhibited”. It also gave an IC50 [7] of 250 nM.
